The values below come from patent publication US20160176867A1, “MODIFIED BET-PROTEIN-INHIBITING DIHYDROQUINOXALINONES AND DIHYDROPYRIDOPYRAZINONES” (BAYER PHARMA AKTIENGESELLSCHAFT, priority 2013, published 2016).

Structures are written as SMILES. pIC50: −log10 of the molar value.

Test [1] concerns the target T1, BRD4 bromo domain 2 [BRD4(2)] (Homo sapiens, UniProt O60885).
T1 construct: N-terminally His6-tagged BRD4(2) (amino acids 357-445); made in house; host or cells: E. coli
Description: BRD4/acetylated peptide H4 binding assay (TR-FRET), BRD4 bromo domain 2. The note with it: inhibition of BRD4(2)/Ac-H4 peptide interaction. Put shortly: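 Binding of His6-BRD4(2) (aa 357-445, 100 nM final) to biotinylated tetra-acetylated H4 peptide read by TR-FRET (665/620 nm). Compound preincubated 10 min at 22 °C, then 1 h at 22 °C plus ≥3 h at 4 °C. Eleven concentrations (0.1 nM–20 μM) in duplicate; IC50 by 4-parameter fit.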
In general terms: Time-resolved FRET reads energy transfer from a long-lived donor to a nearby acceptor.

Test [2] deals with T2, BRD4 bromo domain 1 [BRD4(1)] (Homo sapiens, UniProt O60885).
T2 construct: N-terminally His6-tagged BRD4(1) (amino acids 67-152); made in house; host or cells: E. coli
Description: BRD4/acetylated peptide H4 binding assay (TR-FRET), BRD4 bromo domain 1. The following applies: inhibition of BRD4(1)/Ac-H4 peptide interaction. Put shortly:
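TR-FRET (665/620 nm ratio) measuring displacement of biotinylated tetra-acetylated H4 peptide from His6-BRD4(1) (aa 67-152, E. coli; typically 10 nM) at pH 7.5. Compound (11 concentrations, 0.1 nM–20 μM, duplicates) was preincubated 10 min at 22°C, then 1 h at 22°C and ≥3 h at 4°C; IC50 from 4-parameter fit normalized to DMSO and no-BRD4 controls.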

One may read the pIC50 as the IC50 on a negative log10 scale, so that one unit is a factor of ten. The low end stands for a high IC50, the high end for a low IC50. Consider `C[C@@H]1C(=O)N(C)c2ccc(Nc3cccc(C(=O)NC4CCC(NC5CCN(C)CC5)CC4)c3)nc2N1C1CCOCC1` (stereo partly drawn) [Example 80, 3-{[(3R)-1,3-dimethyl-2-oxo-4-(tetrahydro-2H-pyran-4-yl)-1,2,3,4-tetrahydropyrido[2,3-b]pyrazin-6-yl]amino}-N-{4-[(1-methylpiperidin-4-yl)amino]cyclohexyl} benzamide], for which the values for the pIC50 in test [1] and in test [2] were 6.61 and 6.71, respectively.

Take `COc1ccc(Nc2ccc3c(n2)N(C2CCOCC2)[C@H](C)C(=O)N3C)cc1C(=O)NC1CCN(C)CC1` [Example 81, 5-{[(3R)-1,3-dimethyl-2-oxo-4-(tetrahydro-2H-pyran-4-yl)-1,2,3,4-tetrahydropyrido[2,3-b]pyrazin-6-yl]amino}-2-methoxy-N-(1-methylpiperidin-4-yl)benzamide]: the values for the pIC50 in test [1] and in test [2] were 6.64 and 6.68, respectively.

On to `COc1ccc(Nc2ccc3c(n2)N(C2CCOCC2)[C@H](C)C(=O)N3C)cc1C(=O)N[C@H]1CC[C@H](N2CCN(CC3CC3)CC2)CC1` [Example 82, N-{trans-4-[4-(cyclo-propylmethyl)piperazin-1-yl]cyclohexyl}-5-{[(3R)-1,3-dimethyl-2-oxo-4-(tetrahydro-2H-pyran-4-yl)-1,2,3,4-tetrahydropyrido[2,3-b]pyrazin-6-yl]amino}-2-methoxybenzamide], for which the pIC50 in test [1] was 6.47; in test [2], 6.66.

As to `COc1ccc(Nc2ccc3c(n2)N(C2CCOCC2)[C@H](C)C(=O)N3C)cc1C(=O)N1CCN(C)CC1` [Example 83, (3R)-6-({4-methoxy-3-[(4-methylpiperazin-1-yl)carbonyl]phenyl}-amino)-1,3-dimethyl-4-(tetrahydro-2H-pyran-4-yl)-3,4-dihydropyrido[2,3-b]pyrazin-2(1H)-one], the pIC50 was 6.64 in test [1] and 6.66 in test [2].

Take `C[C@@H]1C(=O)N(C)c2ccc(Nc3cccc(C(=O)NCCN4CCN(C)CC4)c3)nc2N1C1CCCCC1` [Example 84, 3-{[(3R)-4-cyclohexyl-1,3-dimethyl-2-oxo-1,2,3,4-tetrahydropyrido[2,3-b]pyrazin-6-yl]amino}-N-[2-(4-methlpiperazin-1-yl)ethyl]benzamide]: the pIC50 is 6.81 in test [1] and 6.57 in test [2].

In the case of `CC(C)N1CCN(C(=O)c2cccc(Nc3ccc4c(n3)N(C3CCCCC3)[C@H](C)C(=O)N4C)c2)CC1` [Example 85], the pIC50 in test [1] is 6.72; in test [2], 6.50.

Turning to `C[C@@H]1C(=O)N(C)c2ccc(Nc3cccc(C(=O)NC4CCC(O)CC4)c3)nc2N1C1CCCCC1` (stereo partly drawn) [Example 86, 3-{[(3R)-4-cyclohexyl-1,3-dimethyl-2-oxo-1,2,3,4-tetrahydropyrido[2,3-b]pyrazin-6-yl]amino}-N-(4-hydroxycyclohexyl)-benzamide], the results for the pIC50 in test [1] and in test [2] were 6.90 and 6.49, respectively.

Take `COc1ccc(Nc2ccc3c(n2)N(C2CCOCC2)[C@H](C)C(=O)N3C)cc1C(=O)NC1CCC(N2CCC(F)(F)CC2)CC1` (some centres unmarked) [Example 89]: the negative-log IC50 (pIC50) in test [1] was 6.30; in test [2], 6.40.

Take `COc1ccc(C(=O)N[C@H]2CC[C@@H](N3CCN(C4CC4)CC3)CC2)cc1Nc1ccc2c(n1)N(C1CCOCC1)[C@H](C)C(=O)N2C` [Example 90, N-[cis-4-(4-cyclopropylpiperazin-1-yl)cyclohexyl]-3-{[(3R)-1,3-dimethyl-2-oxo-4-(tetrahydro-2H-pyran-4-yl)-1,2,3,4-tetrahydropyrido[2,3-b]pyrazin-6-yl]amino}-4-methoxybenzamide]: the pIC50 in test [1] was 6.48; in test [2], 6.37.

For the compound `COc1c(Nc2ccc3c(n2)N(C2CCOCC2)[C@H](C)C(=O)N3C)cccc1C(=O)N[C@H]1CC[C@H](N2CCN(CC3CC3)CC2)CC1` [Example 91, N-{trans-4-[4-(cyclo-propylmethyl)piperazin-1-yl]cyclohexyl}-3-{[(3R)-1,3-dimethyl-2-oxo-4-(tetrahydro-2H-pyran-4-yl)-1,2,3,4-tetrahydropyrido[2,3-b]pyrazin-6-yl]amino}-2-methoxybenzamide], the negative-log IC50 (pIC50) in test [1] is 6.49; in test [2], 6.36.

As for `COc1c(Nc2ccc3c(n2)N(C2CCOCC2)[C@H](C)C(=O)N3C)cccc1C(=O)N1CCN(C)CC1` [Example 92, (3R)-6-({2-methoxy-3-[(4-methylpiperazin-1-yl)carbonyl]phenyl}-amino)-1,3-dimethyl-4-(tetrahydro-2H-pyran-4-yl)-3,4-dihydropyrido[2,3-b]pyrazin-2(1H)-one], the figures for the negative logarithm of the IC50 (pIC50) in test [1] and in test [2] were 6.24 and 6.34, respectively.

For `CC(C)N1c2nc(Nc3cccc(C(=O)NC4CCN(C)CC4)c3)ccc2N(C)C(=O)[C@H]1C` [Example 94, 3-{[(3R)-4-isopropyl-1,3-dimethyl-2-oxo-1,2,3,4-tetrahydropyrido[2,3-b]pyrazin-6-yl]amino}-N-(1-methylpiperidin-4-yl)benzamide], the pIC50 in test [1] was 6.94; in test [2], 6.33.

As to `C[C@@H]1C(=O)N(C)c2ccc(Nc3cccc(C(=O)NC4CCN(C)CC4)c3)nc2N1C1CCCCC1` [Example 95, 3-{[(3R)-4-cyclohexyl-1,3-dimethyl-2-oxo-1,2,3,4-tetrahydropyrido[2,3-b]pyrazin-6-yl]amino}-N-(1-methylpiperidin-4-yl)benzamide], the results for the pIC50 in test [1] and in test [2] were 6.56 and 6.32, respectively.

Consider `C[C@@H]1C(=O)N(C)c2ccc(Nc3cccc(C(=O)NC4CCN(C)CC4)c3)nc2N1C1CCC(C)(C)CC1` [Example 96, 3-{[(3R)-4-(4,4-dimethylcyclohexyl)-1,3-dimethyl-2-oxo-1,2,3,4-tetrahydropyrido[2,3-b]pyrazin-6-yl]amino}-N-(1-methylpiperidin-4-yl)benzamide], for which the values for the pIC50 in test [1] and in test [2] were 6.24 and 6.30, respectively.

`CC(C)N1c2nc(Nc3cccc(C(=O)NCCN(C)C)c3)ccc2N(C)C(=O)[C@H]1C` [Example 97, N-[2-(dimethylamino)ethyl]-3-{[(3R)-4-isopropyl-1,3-dimethyl-2-oxo-1,2,3,4-tetrahydropyrido[2,3-b]pyrazin-6-yl]amino}benzamide]: the pIC50 in test [1] is 6.75; in test [2], 6.30.

Regarding `C[C@@H]1C(=O)N(C)c2ccc(Nc3cccc(C(=O)N[C@H]4CC[C@H](N5CCN(CC6CC6)CC5)CC4)c3)nc2N1C1CCCCC1` [Example 99, 3-{[(3R)-4-cyclohexyl-1,3-dimethyl-2-oxo-1,2,3,4-tetrahydropyrido[2,3-b]pyrazin-6-yl]amino}-N-{trans-4-[4-(cyclopropyl-methyl)piperazin-1-yl]cyclohexyl}benzamide], the pIC50 in test [1] was 6.56; in test [2] it was 6.26.

As to `C[C@@H]1C(=O)N(C)c2ccc(Nc3cccc(C(=O)NC4CCN(C)CC4)c3)nc2N1C1CCN(C(=O)OC(C)(C)C)CC1` [Example 100, tert-butyl 4-[(3R)-1,3-dimethyl-6-({3-[(1-methylpiperidin-4-yl)carbamoyl]phenyl}amino)-2-oxo-2,3-dihydropyrido[2,3-b]pyrazin-4(1H)-yl]piperidine-1-carboxylate], the pIC50 was 6.34 in test [1] and 6.26 in test [2].

As to `COCCN1c2nc(Nc3cccc(C(=O)N[C@H]4CC[C@H](N5CCN(CC6CC6)CC5)CC4)c3)ccc2N(C)C(=O)[C@H]1C` [Example 101, N-{trans-4-[4-(cyclopropylmethyl)piperazin-1-yl]cyclohexyl}-3-{[(3R)-4-(2-methoxyethyl)-1,3-dimethyl-2-oxo-1,2,3,4-tetrahydropyrido-[2,3-b]pyrazin-6-yl]amino}benzamide], the pIC50 in test [1] is 6.71; in test [2] it was 6.21.

Take `C[C@@H]1C(=O)N(C)c2ccc(Nc3cccc(C(=O)N[C@H]4CC[C@H](N5CCN(CC6CC6)CC5)CC4)c3)nc2N1C1CCN(C(=O)OC(C)(C)C)CC1` [Example 102, tert-butyl 4-[(3R)-6-{[3-({trans-4-[4-(cyclopropl-methyl)piperazin-1-yl]cyclohexyl}carbamoyl)phenyl]amino}-1,3-dimethyl-2-oxo-2,3-dihydropyrido[2,3-b]pyrazin-4(1H)-yl]piperidine-1-carboxylate]: the pIC50 was 6.16 in test [1] and 6.10 in test [2].

For the compound `COc1c(Nc2ccc3c(n2)N(C2CCOCC2)[C@H](C)C(=O)N3C)cccc1C(=O)NC1CCN(C)CC1` [Example 103, 3-{[(3R)-1,3-dimethyl-2-oxo-4-(tetrahydro-2H-pyran-4-yl)-1,2,3,4-tetrahydropyrido[2,3-b]pyrazin-6-yl]amino}-2-methoxy-N-(1-melhylpiperidin-4-yl)benzamide], the pIC50 was 6.29 in test [1] and 6.09 in test [2].

As to `C[C@@H]1C(=O)N(C)c2ccc(Nc3cccc(C(=O)N(C)C)c3)cc2N1C1CCN(C(=O)OC(C)(C)C)CC1` [Example 105, tert-butyl 4-[(2R)-7-{[3-(dimethylcarbamoyl)phenyl]amino}-2,4-dimethyl-3-oxo-3,4-dihydroquinoxalin-1(2H)-yl]piperidine-1-carboxylate], the pIC50 in test [1] is 6.22; in test [2], 6.68.

`C[C@@H]1C(=O)N(C)c2ccc(Nc3cccc(C(=O)N4CCN(C)CC4)c3)cc2N1C1CCOCC1` [Example 106, (3R)-1,3-dimethyl-6-({3-[(4-methylpiperazin-1-yl)carbonyl]phenyl}amino)-4-(tetrahydro-2H-pyran-4-yl)-3,4-dihydroquinoxalin-2(1H)-one]: the pIC50 in test [1] is 6.09; in test [2], 6.45.
